Earlier results in PMC10952301, “Solid‐Phase Synthesis and Biological Evaluation of Peptides ADP‐Ribosylated at Histidine” (Angewandte Chemie (International Ed. in English), 2023).

Conditions: quoted without reference to compare leaving group capacity

c1c[nH]nn1 [1,2,3‐triazole]
pKa: 9.4
